Measurements published in patent US20230150944A1, “PESTICIDALLY ACTIVE HETEROCYCLIC DERIVATIVES WITH SULFOXIMINE CONTAINING SUBSTITUENTS” (SYNGENTA CROP PROTECTION AG, priority 2018, published 2023).

Assays:
Type in all cases: in vivo
[1] = tested on: Diabrotica balteata (Corn Root Worm); assay: Example B2: Activity on Diabrotica balteata, maize sprout spray; details: 96 h, application rate of 200 ppm, L2 larvae on maize sprouts, 4 days after infestation, read-out: effect in at least one of the two categories (mortality or growth inhibition)
Method: Example B2: Activity on Diabrotica balteata (Corn Root Worm)
Maize sprouts placed onto an agar layer in 24-well microtiter plates were treated with aqueous test solutions prepared from 10′000 ppm DMSO stock solutions by spraying. After drying, the plates were infested with L2 larvae (6 to 10 per well). The samples were assessed for mortality and growth inhibition in comparison to untreated samples 4 days after infestation.

[2] = tested on: Spodoptera littoralis (Egyptian Cotton Leaf Worm); assay: Example B7: Activity on Spodoptera littoralis, cotton leaf disc spray; details: foliar, 72 h, application rate of 200 ppm, L1 larvae on cotton leaf discs, 3 days after infestation, read-out: control (mortality, anti-feeding effect or growth inhibition)
Method: Example B7: Activity on Spodoptera littoralis (Egyptian Cotton Leaf Worm)
Cotton leaf discs were placed onto agar in 24-well microtiter plates and sprayed with aqueous test solutions prepared from 10′000 ppm DMSO stock solutions. After drying the leaf discs were infested with five L1 larvae. The samples were assessed for mortality, anti-feeding effect, and growth inhibition in comparison to untreated samples 3 days after infestation. Control of Spodoptera littoralis by a test sample is given when at least one of the categories mortality, anti-feedant effect, and growth inhibition is higher than the untreated sample.

[3] = tested on: Euschistus heros (Neotropical Brown Stink Bug); assay: Example B3: Activity on Euschistus heros, soybean leaf spray; details: 120 h, application rate of 200 ppm, N2 nymphs on soybean leaves, 5 days after infestation, read-out: effect in at least one of the two categories (mortality or growth inhibition)
Method: Example B3: Activity on Euschistus heros (Neotropical Brown Stink Bug)
Soybean leaves on agar in 24-well microtiter plates were sprayed with aqueous test solutions prepared from 10′000 ppm DMSO stock solutions. After drying the leaves were infested with N2 nymphs. The samples were assessed for mortality and growth inhibition in comparison to untreated samples 5 days after infestation.

[4] = tested on: Myzus persicae (Green Peach Aphid); assay: Example B4: Activity on Myzus persicae, sunflower leaf disc spray; details: foliar, 144 h, application rate of 200 ppm, mixed-age aphids on sprayed sunflower leaf discs, 6 days after infestation
Method: Example B4: Activity on Myzus persicae (Green Peach Aphid)
Sunflower leaf discs were placed onto agar in a 24-well microtiter plate and sprayed with aqueous test solutions prepared from 10′000 ppm DMSO stock solutions. After drying, the leaf discs were infested with an aphid population of mixed ages. The samples were assessed for mortality 6 days after infestation.

[5] = tested on: Tetranychus urticae (Two-Spotted Spider Mite); assay: Example B10: Activity on Tetranychus urticae, bean leaf disc spray; details: foliar, 192 h
Method: Example B10: Activity on Tetranychus urticae (Two-Spotted Spider Mite)
Bean leaf discs on agar in 24-well microtiter plates were sprayed with aqueous test solutions prepared from 10′000 ppm DMSO stock solutions. After drying the leaf discs were infested with a mite population of mixed ages. The samples were assessed for mortality on mixed population (mobile stages) 8 days after infestation.

[6] = tested on: Myzus persicae (Green Peach Aphid); assay: Example B5: Activity on Myzus persicae, pea seedling roots in test solution; details: 144 h, test rate of 24 ppm, roots of infested pea seedlings placed into test solution, 6 days
Method: Example B5: Activity on Myzus persicae (Green Peach Aphid)
Roots of pea seedlings infested with an aphid population of mixed ages were placed directly into aqueous test solutions prepared from 10′000 DMSO stock solutions. The samples were assessed for mortality 6 days after placing seedlings into test solutions.

[7] = tested on: Plutella xylostella (Diamond Back Moth); assay: Example B6: Activity on Plutella xylostella, artificial diet, L2 larvae; details: 120 h, application rate of 200 ppm, 5 days after infestation, read-out: effect in at least one of the two categories (mortality or growth inhibition)
Method: Example B6: Activity on Plutella xylostella (Diamond Back Moth)
24-well microtiter plates with artificial diet were treated with aqueous test solutions prepared from 10′000 ppm DMSO stock solutions by pipetting. After drying, the plates were infested with L2 larvae (10 to 15 per well). The samples were assessed for mortality and growth inhibition in comparison to untreated samples 5 days after infestation.

[8] = tested on: Bemisia tabaci (Cotton White Fly); assay: Example B1: Activity on Bemisia tabaci, cotton leaf disc spray; details: foliar, 144 h, application rate of 200 ppm, adult white flies on cotton leaf discs, 6 days after incubation
Method: Example B1: Activity on Bemisia tabaci (Cotton White Fly)
Cotton leaf discs were placed on agar in 24-well microtiter plates and sprayed with aqueous test solutions prepared from 10′000 ppm DMSO stock solutions. After drying the leaf discs were infested with adult white flies. The samples were checked for mortality 6 days after incubation.

[9] = tested on: Plutella xylostella (Diamond Back Moth); assay: Example B11: Activity on Plutella xylostella, artificial diet, eggs; details: 192 h, application rate of 200 ppm, 8 days after infestation, read-out: effect in at least one of the two categories (mortality or growth inhibition)
Method: Example B11: Activity on Plutella xylostella (Diamond Back Moth)
24-well microtiter plates with artificial diet were treated with aqueous test solutions prepared from 10′000 ppm DMSO stock solutions by pipetting. After drying, Plutella eggs were pipetted through a plastic stencil onto a gel blotting paper and the plate was closed with it. The samples were assessed for mortality and growth inhibition in comparison to untreated samples 8 days after infestation.

CCS(=N)(=O)c1cc(C2CC2)cnc1-c1nc2cc(S(=O)(=O)C(F)(F)F)ncc2n1C (centres unmarked) [Example P3, [5-cyclopropyl-2-[3-methyl-6-(trifluoromethylsulfonyl)imidazo[4,5-c]pyridin-2-yl]-3-pyridyl]-ethyl-imino-oxo-λ^6-sulfane]
≥ 80%: percent effect (mortality or growth inhibition) at 200 ppm [1] | percent control (mortality, anti-feedant effect or growth inhibition) at 200 ppm [2] | percent effect (mortality or growth inhibition) at 200 ppm [3] | mortality at 200 ppm [4] | mortality at 200 ppm [5] | mortality at 24 ppm [6] | percent effect (mortality or growth inhibition) at 200 ppm [7] | mortality at 200 ppm [8]

CCS(=N)(=O)c1cc(C2CC2)cnc1-c1cn2ncc(C(F)(F)F)cc2n1 (centres unmarked) [Example P16, [5-cyclopropyl-2-[7-(trifluoromethyl)imidazo[1,2-b]pyridazin-2-yl]-3-pyridyl]-ethyl-imino-oxo-λ^6-sulfane]
≥ 80%: percent effect (mortality or growth inhibition) at 200 ppm [1] | percent control (mortality, anti-feedant effect or growth inhibition) at 200 ppm [2] | mortality at 200 ppm [4] | mortality at 24 ppm [6] | percent effect (mortality or growth inhibition) at 200 ppm [9]

CCS(=N)(=O)c1cc(C2(C#N)CC2)cnc1-n1cc2cnc(C(F)(F)F)cc2n1 (centres unmarked) [Example P17, 1-[5-(ethylsulfonimidoyl)-6-[6-(trifluoromethyl)pyrazolo[4,3-c]pyridin-2-yl]-3-pyridyl] cyclopropanecarbonitrile]
≥ 80%: mortality at 200 ppm [4] | mortality at 24 ppm [6] | percent effect (mortality or growth inhibition) at 200 ppm [9]

CCS(=N)(=O)c1cc(C2CC2)cnc1-c1nc2cc(S(=O)(=O)C(F)(F)F)ccc2o1 (centres unmarked) [Example P19, [5-cyclopropyl-2-[5-(trifluoromethylsulfonyl)-l ,3-benzoxazol-2-yl]-3-pyridyl]-ethyl-imino-oxo-λ^6-sulfane]
≥ 80%: percent effect (mortality or growth inhibition) at 200 ppm [9]
